This note sets out measurements from patent US9615576B2, “Pesticidal compositions and processes related thereto” (Dow AgroSciences LLC, priority 2011, dated 2017).

Assay [1] concerns Beet Armyworm (BAW) (Spodoptera exigua). The experiment in a line: Bioassays on Beet Armyworm (BAW), 128-well diet tray assay. The assay is classed as in vivo. Conditions: 168 h, 50 μg/cm^2 test compound on artificial diet, second instar larvae, 25° C., five to seven days, average of eight wells, read-out: BAW Rating (% mortality). As to the method: (§1) Certain molecules disclosed in this document were tested against BAW and CEW using procedures described in the following examples. In the reporting of the results, the “BAW & CEW Rating Table” was used (See Table Section).
Bioassays on BAW (Spodoptera exigua)
Bioassays on BAW were conducted using a 128-well diet tray assay. one to five second instar BAW larvae were placed in each well (3 mL) of the diet tray that had been previously filled with 1 mL of artificial diet to which 50 μg/cm^2 of the test compound (dissolved in 50 μL of 90:10 acetone-water mixture) had been applied (to each of eight wells) and then allowed to dry. Trays were covered with a clear self-adhesive cover, and held at 25° C., 14:10 light-dark for five to seven days. Percent mortality was recorded for the larvae in each well; activity in the eight wells was then averaged. The results are indicated in the table entitled “Table 3: Assay Results” (See Table Section).

The subject of assay [2] is Corn Earworm (CEW) (Helicoverpa zea). The experiment in a line: Bioassays on Corn Earworm (CEW), 128-well diet tray assay. In kind it is in vivo. Conditions: 168 h, 50 μg/cm^2 test compound on artificial diet, second instar larvae, 25° C., five to seven days, average of eight wells, read-out: CEW Rating (% mortality). As to the method: as §1
Bioassays on CEW (Helicoverpa zea)
Bioassays on CEW were conducted using a 128-well diet tray assay. one to five second instar CEW larvae were placed in each well (3 mL) of the diet tray that had been previously filled with 1 mL of artificial diet to which 50 μg/cm^2 of the test compound (dissolved in 50 μL of 90:10 acetone-water mixture) had been applied (to each of eight wells) and then allowed to dry. Trays were covered with a clear self-adhesive cover, and held at 25° C., 14:10 light-dark for five to seven days. Percent mortality was recorded for the larvae in each well; activity in the eight wells was then averaged. The results are indicated in the table entitled “Table 3: Assay Results” (See Table Section).

The structures appear in SMILES notation.

As to `O=C(NC1CCNCC1)c1ccc(/C=C/C(c2cc(Cl)c(Cl)c(Cl)c2)C(F)(F)F)cc1Br` (centres unmarked) [AC114, (E)-2-bromo-N-(piperidin-4-yl)-4-(4,4,4-trifluoro-3-(3,4,5-trichlorophenyl)but-1-en-1-yl)benzamide], the values for the mortality at 50 µg/cm2 in assay [1] and in assay [2] were 50 to 100% and 0 to 50%, respectively.

As for `COC(/C=C/c1ccc(-n2cncn2)cc1)(c1cc(Cl)cc(Cl)c1)C(F)(F)F` (centres unmarked) [DC70, (E)-1-(4-(3-(3,5-dichlorophenyl)-4,4,4-trifluoro-3-methoxybut-1-en-1-yl)phenyl)-1H-1,2,4-triazole], the mortality at 50 µg/cm2 in assay [1] and in assay [2] was 50 to 100% in each case.

As for `O=C(NCc1ccc(/C=C/C(c2cc(Cl)c(Cl)c(Cl)c2)C(F)(F)F)cc1Cl)C(=O)NCC(F)(F)F` (centres unmarked) [CC42, (E)-N^1-(2-chloro-4-(4,4,4-trifluoro-3-(3,4,5-trichlorophenyl)but-1-en-1-yl)benzyl)-N^2-(2,2,2-trifluoroethyl)oxalamide], the mortality at 50 µg/cm2 in assay [1] and in assay [2] was 0% throughout.

With `OCc1cc(/C=C/C(c2cc(Cl)cc(Cl)c2)C(F)(F)F)ccc1-n1cncn1` (centres unmarked) [DC53], the mortality at 50 µg/cm2 was 0% in assay [1] and 50 to 100% in assay [2].

For `CSCCC(=O)NCc1ccc(/C=C/C(c2cc(Cl)c(Cl)c(Cl)c2)C(F)(F)F)cc1Cl` (centres unmarked) [CC19], the mortality at 50 µg/cm2 in assay [1] and in assay [2] was 50 to 100% each time.

As to `Cc1cc(/C=C/C(c2cc(Cl)cc(Cl)c2)C(F)(F)F)ccc1C(=O)NCc1ccccc1F` (centres unmarked) [AC9], the mortality at 50 µg/cm2 in assay [1] and in assay [2] was 50 to 100% in each case.

As to `Cc1cc(/C=C/C(c2cc(Cl)cc(Cl)c2)C(F)(F)F)cc(C#N)c1-n1cncn1` (centres unmarked) [DC44], the mortality at 50 µg/cm2 in assay [1] and in assay [2] was 50 to 100% each time.

Take `N#CCN1CCC(NC(=O)c2ccc(/C=C/C(c3cc(Cl)c(Cl)c(Cl)c3)C(F)(F)F)cc2Br)CC1` (centres unmarked) [AC107]: the mortality at 50 µg/cm2 in assay [1] lay within 0 to 50%; in assay [2], 50 to 100%.

As for `O=C(CNC(=O)c1ccc(/C=C\C(c2cc(Cl)c(Cl)c(Cl)c2)C(F)(F)F)cc1Br)NCC(F)(F)F` (centres unmarked) [AC95, (Z)-2-bromo-N-(2-oxo-2-((2,2,2-trifluoroethyl)amino)ethyl)-4-(4,4,4-trifluoro-3-(3,4,5-trichlorophenyl)but-1-en-1-yl)benzamide], the mortality at 50 µg/cm2 in assay [1] and in assay [2] was 50 to 100% each time.

For the compound `Cc1cc(/C=C/C(c2cc(Cl)cc(Cl)c2)C(F)(F)F)cnc1C(=O)NCc1ccc(Cl)nc1` (centres unmarked) [AC60], the mortality at 50 µg/cm2 in assay [1] and in assay [2] was 50 to 100% in each case.

`C=CCNC(=S)NC1CCc2cc(/C=C/C(c3cc(Cl)c(Cl)c(Cl)c3)C(F)(F)F)ccc21` (centres unmarked) [BC3]: the mortality at 50 µg/cm2 in assay [1] and in assay [2] was 50 to 100% in each case.

In the case of `O=C(CC(F)(F)F)NCc1ccc(/C=C/C(c2ccc(Cl)c(Cl)c2)C(F)(F)F)cc1Cl` (centres unmarked) [CC18], the mortality at 50 µg/cm2 in assay [1] and in assay [2] was 50 to 100% throughout.

With `C/C(=C\C(c1cc(Cl)cc(Cl)c1)C(F)(F)F)c1ccc(-n2cncn2)cc1` (centres unmarked) [DC68, (E)-1-(4-(4-(3,5-dichlorophenyl)-5,5,5-trifluoropent-2-en-2-yl)phenyl)-1H-1,2,4-triazole], the mortality at 50 µg/cm2 in assay [1] and in assay [2] was 50 to 100% throughout.

Take `O=C(NCc1ccc(/C=C/C(c2cc(Cl)c(Cl)c(Cl)c2)C(F)(F)F)cc1Br)C1CC1` (centres unmarked) [CC26]: the mortality at 50 µg/cm2 is 50 to 100% in assay [1] and 0% in assay [2].

Regarding `Cc1ccc(C(/C=C/c2ccc(-n3cncn3)cc2)C(F)(F)F)cc1` (centres unmarked) [DC5], the mortality at 50 µg/cm2 in assay [1] and in assay [2] was 0% in each case.

As for `CS(=O)(=O)CCC(=O)NCc1ccc(/C=C/C(c2cc(Cl)c(Cl)c(Cl)c2)C(F)(F)F)cc1Cl` (centres unmarked) [CC30, (E)-N-(2-chloro-4-(4,4,4-trifluoro-3-(3,4,5-trichlorophenyl)but-1-en-1-yl)benzyl)-3-(methylsulfonyl)propanamide], the mortality at 50 µg/cm2 in assay [1] and in assay [2] was 50 to 100% in each case.

As to `Cc1cc(/C=C/C(c2ccc(Cl)c(Cl)c2)C(F)(F)F)ccc1C(=O)NCc1ccc(Cl)nc1` (centres unmarked) [AC37], the mortality at 50 µg/cm2 in assay [1] and in assay [2] was 50 to 100% each time.

For the compound `Cc1cc(/C=C/C(c2cc(Cl)cc(Cl)c2)C(F)(F)F)ccc1C(=O)NCc1ccccc1` (centres unmarked) [AC11], the mortality at 50 µg/cm2 in assay [1] and in assay [2] was 50 to 100% in each case.

With `N#Cc1cc(/C=C/C(c2cc(Cl)c(Cl)c(Cl)c2)C(F)(F)F)ccc1-n1cnc(N(C(=O)C2CC2)C(=O)C2CC2)n1` (centres unmarked) [DC42, (E)-N-(1-(2-cyano-4-(4,4,4-trifluoro-3-(3,4,5-trichlorophenyl)but-1-en-1-yl)phenyl)-1H-1,2,4-triazol-3-yl)-N-(cyclopropanecarbonyl)cyclopropanecarboxamide], the mortality at 50 µg/cm2 in assay [1] and in assay [2] was 50 to 100% in each case.

As to `O=C(CC(F)(F)F)NC1CCc2cc(/C=C/C(c3cc(Cl)c(Cl)c(Cl)c3)C(F)(F)F)ccc21` (centres unmarked) [BC4, (E)-3,3,3-trifluoro-N-(5-(4,4,4-trifluoro-3-(3,4,5-trichlorophenyl)but-1-enyl)-2,3-dihydro-1H-inden-1-yl)propanamide], the mortality at 50 µg/cm2 in assay [1] and in assay [2] was 50 to 100% in each case.

For `O=C(CC(F)(F)F)NCc1ccc(/C=C/C(c2cc(Cl)c(Cl)c(Cl)c2)C(F)(F)F)cc1F` (centres unmarked) [CC27], the mortality at 50 µg/cm2 in assay [1] and in assay [2] was 50 to 100% throughout.

On to `Cc1cc(/C=C/C(c2cc(Cl)cc(Cl)c2)C(F)(F)F)ccc1C(=O)NCC1CCCO1` (centres unmarked) [AC118], for which the mortality at 50 µg/cm2 was 50 to 100% in assay [1] and 0% in assay [2].

`CCC(=O)NCc1ccc(/C=C/C(c2cc(Cl)cc(Cl)c2)C(F)(F)F)cc1` (centres unmarked) [CC4]: the mortality at 50 µg/cm2 was in the range of 50 to 100% in assay [1] and 0 to 50% in assay [2].

For `Cc1cc(/C=C/C(c2cc(Cl)c(F)c(Cl)c2)C(F)(F)F)ccc1C(=O)NCc1ccnc(Cl)c1` (centres unmarked) [AC54], the mortality at 50 µg/cm2 in assay [1] and in assay [2] was 50 to 100% each time.

Turning to `O=C(NOc1ccc(/C=C/C(c2cc(Cl)c(Cl)c(Cl)c2)C(F)(F)F)cc1)C1CC1` (centres unmarked) [CC52, (E)-N-(4-(4,4,4-trifluoro-3-(3,4,5-trichlorophenyl)but-1-en-1-yl)phenoxy)cyclopropanecarboxamide], the mortality at 50 µg/cm2 in assay [1] is 50 to 100%; in assay [2], 0%.

For `Cc1cc(/C=C/C(c2cc(Cl)cc(Cl)c2)C(F)(F)F)ccc1C(=O)NCC(=O)NCC(F)(F)F` (centres unmarked) [AC24], the mortality at 50 µg/cm2 in assay [1] and in assay [2] was 50 to 100% each time.

With `N#Cc1cc(/C=C/C(c2cccc(Cl)c2)C(F)(F)F)ccc1-n1cncn1` (centres unmarked) [DC32], the mortality at 50 µg/cm2 in assay [1] and in assay [2] was 0% throughout.

For `COc1ccc(CNC(=O)c2ccc(/C=C/C(c3cc(Cl)c(Cl)c(Cl)c3)C(F)(F)F)cc2Br)cn1` (centres unmarked) [AC97], the mortality at 50 µg/cm2 in assay [1] and in assay [2] was 0% each time.

Turning to `N#Cc1cc(/C=C/C(c2cc(Cl)cc(Cl)c2)C(F)(F)F)ccc1-n1cnc([N+](=O)[O-])n1` (centres unmarked) [DC37], the mortality at 50 µg/cm2 in assay [1] and in assay [2] was 50 to 100% in each case.

In the case of `C=CCNC(=S)NCc1ccc(/C=C/C(c2cc(Cl)c(Cl)c(Cl)c2)C(F)(F)F)cc1Cl` (centres unmarked) [CC38], the mortality at 50 µg/cm2 in assay [1] and in assay [2] was 50 to 100% in each case.

As for `CCNC(=S)NCc1ccc(/C=C/C(c2cc(Cl)c(Cl)c(Cl)c2)C(F)(F)F)cc1Cl` (centres unmarked) [CC37, (E)-1-(2-chloro-4-(4,4,4-trifluoro-3-(3,4,5-trichlorophenyl)but-1-en-1-yl)benzyl)-3-ethylthiourea], the mortality at 50 µg/cm2 in assay [1] and in assay [2] was 50 to 100% each time.

`Cc1cc(/C=C/C(c2cc(Cl)cc(Cl)c2)C(F)(F)F)ccc1C(=O)NCC(=O)NNC(=O)C1CC1` (centres unmarked) [AC47]: the mortality at 50 µg/cm2 in assay [1] and in assay [2] was 0% each time.

On to `O=C(CC(F)(F)F)NC1CCc2cc(/C=C/C(c3cc(Cl)c(F)c(Cl)c3)C(F)(F)F)ccc21` (centres unmarked) [BC8], for which the mortality at 50 µg/cm2 in assay [1] and in assay [2] was 50 to 100% in each case.

As for `O=C(NC1CSC1)c1ccc(/C=C/C(c2cc(Cl)c(F)c(Cl)c2)C(F)(F)F)cc1F` (centres unmarked) [AC67], the mortality at 50 µg/cm2 in assay [1] and in assay [2] was 50 to 100% in each case.

Regarding `FC(F)(F)C(/C=C/c1ccc(-n2cncn2)cc1)c1cc(Cl)ccc1Cl` (centres unmarked) [DC15], the mortality at 50 µg/cm2 in assay [1] and in assay [2] was 0% each time.

For the compound `O=C(NC1CS(=O)(=O)C1)c1ccc(/C=C/C(c2cc(Cl)c(Cl)c(Cl)c2)C(F)(F)F)cc1C(F)(F)F` (centres unmarked) [AC35], the mortality at 50 µg/cm2 in assay [1] and in assay [2] was 50 to 100% each time.

For the compound `FC(F)(F)C(/C=C/c1ccc(-n2cncn2)cc1)c1cccc(Cl)c1` (centres unmarked) [DC2], the mortality at 50 µg/cm2 in assay [1] and in assay [2] was 0% throughout.

One may read the mortality as the share of the test organisms that died.
